Holding throughout (type): cell-based, human
The subject of assay [1] is SKOV3 (Ovarian adenocarcinoma). As to the kind of experiment: In vitro cytotoxicity, microculture tetrazolium (MTT) assay, SKOV3. The method, then:
(§1) In Vitro Cytotoxicity--Microculture Tetrazolium Assay
(§2) The microculture tetrazolium assay was used to test in vitro cytotoxicity. This assay is described in Plumb, J. A. et al., 1989 Cancer Research 49, 4435-4440, which is herein incorporated by reference. The cytotoxicity of compounds towards tumor cells is measured in vitro using the assay. This assay method is based upon the ability of live, but not dead cells to reduce the yellow water soluble dye 3-(4;5-dimethylthiazol-2-yl)-2,5-diphenyltetrazolium bromide (MTT) to its water insoluble purple formazan product.
(§3) Human Tumor Cell lines, used were:
SKOV3 (Ovarian adenocarcinoma)--provided by Dr. V. Ling,
(§4) The cells were maintained in exponential growth in culture in minimal essential media (MEM) supplemented with non-essential amino acids, and containing 15% (v/v) fetal bovine serum, 5 mM L-glutamine, 1 mM sodium pyruvate, and 0.1 U/ml insulin. All cell lines were grown at 37° C. in an atmosphere of 5% CO2 in air.
(§5) Test compounds: 20 mM in DMSO and diluted to a final concentration of 200 μM in culture medium before use.
(§6) The following is the generic description of the assay method. It should be noted that although the conditions described work well with the cells listed above, the initial plating density and the MTT concentration used should be verified for each new cell line used to test compounds.
(§7) For each assay, doxorubicin is included as an inter-assay standard. This allows us to monitor the behaviour of the assay in general, and in particular, to check that the SKVLB line has maintained its resistant phenotype.
(§8) The plate layout is done in the following manner: The assays are carried out in 96-well (8 well×12 well) microtiter plates. Serial dilutions of the compound are tested along the length of the plate. A 1:3 serial dilution of compound in culture medium covers a concentration range from 100 μM to 1.7 nM. Each concentration of compound is tested in quadruplet, allowing two compounds to be tested per plate. Wells containing no cells (blank) and cells with no test compound (control) are included on each plate.
(§9) Cells are plated out in 100 μl of culture medium in the microtiter plates at a density of around 1,500-4,000 cells per well. The plates are incubated overnight to allow the cells to become adherent after which the test compound is added (100 μl of appropriate dilution per well). The cells are incubated with test compound at 37° C. for 48 h after which the compound is replaced with fresh medium. After a further 48 h incubation at 37° C., 50 μl of MTT solution (2 mg/ml) is added to each well. The plates are incubated in the dark for 4 h at 37° C. after which the medium is removed. The MTT formazan product is extracted from the cells by the addition of 200 μl DMSO followed by 50 μl of Sorensen's buffer. The plates are shaken briefly and the absorbance at 570 nm is read using a Molecular Devices UV max plate reader. Curves are fit to the MTT assay data using a four parameter logistic equation, and the data are normalized to fit a 0% to 100% survival scale.

Assay [2] has as its system SKVLB (Ovarian; multidrug resistant). Put plainly: In vitro cytotoxicity, microculture tetrazolium (MTT) assay, SKVLB. Particulars: for VLB/OV3: ratio SKVLB / SKOV3. A digest of the protocol: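 Multidrug-resistant ovarian SKVLB cells exposed 48 h at 37 °C to 1:3 serial dilutions (100 μM–1.7 nM), then 48 h in fresh medium. MTT reduction read at 570 nm after DMSO extraction; four-parameter logistic fit normalized to 0–100% survival.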

Assay [3] deals with T47D (Ductal carcinoma of breast). As to the kind of experiment: In vitro cytotoxicity, microculture tetrazolium (MTT) assay, T47D. The method, then: as §1, §2, §3
T47D (Ductal carcinoma of breast)--ATCC catalog #HTB-133.
as §4, §5, §6, §7, §8, §9

Assay [4] deals with HT 29 (Colon adenocarcinoma). As to the kind of experiment: In vitro cytotoxicity, microculture tetrazolium (MTT) assay, HT 29. The method, then:
as §1, §2, §3
HT 29 (Colon adenocarcinoma) ATCC catalog #HTB-38.
as §4, §5, §6, §7, §8, §9

The next assay relates to Lox (Melanoma). As to the kind of experiment: In vitro cytotoxicity, microculture tetrazolium (MTT) assay, Lox. The method, then: as §1, §2, §3
Lox (Melanoma)--Southern Research Institute.
as §4, §5, §6, §7, §8, §9

The mark [5] stands for this setting: Homo sapiens, SKVLB, multidrug resistant, read-out: IC50.
Setting [6] is: Homo sapiens, HT-29, HT29, read-out: IC50.
[7] abbreviates: SKVLB, multidrug resistant, read-out: IC50.

Structures can show the parent of a compound that is named as a salt. Where two headings read alike, the source gives them in different places.

As a reminder, the IC50 is the concentration that gives 50% inhibition. For `COC1OC(C(=O)NCCCN2CCCC2=O)=CC2=C1C(=O)c1ccccc1C2=O` (stereo not shown) [BCH2166, 1-methoxy-3-(3-N-pyrrolidinomylpropylaminocarbonyl)-5,10-dioxo-5,10-dihydro-1H-naphtho-[2,3-c]-pyran], the IC50 in assay [1] (Homo sapiens, SK-OV-3, SKOV3, read-out: IC50) is 140 to 181 nM; in assay [2] (setting [5]), 495 to 1200 nM; in assay [3] (Homo sapiens, read-out: IC50), 237 nM; in assay [4] (setting [6]), 443 to 1200 nM. The VLB/OV3 in assay [2] was 2.73.
Turning to `CC(=O)C1CC2=C(C(=O)c3ccccc3C2=O)C(OC2CC(NC(=O)C(F)(F)F)C(O)C(C)O2)O1` (stereo not shown) [BCH2145], the IC50 in assay [1] (SKOV3, read-out: IC50) came out at 8190 nM; in assay [2] (setting [7]), 13400 nM; with Lox (Melanoma) (read-out: IC50), 830 nM; in assay [4] (HT29, read-out: IC50), 2480 nM. In assay [2], the VLB/OV3 is on record as 1.64.
Consider `CC(=O)C1CC2=C(C(=O)c3ccccc3C2=O)C(O)O1` (stereo not shown) [BCH1148, Methyl (1-hydroxy-5,10-dioxo-3,4,5,10-tetrahydronaphtho [2,3-C]pyran-3-yl) ketone], for which the half-inhibitory concentration (IC50) in assay [4] (setting [6]) is above 10000 nM.
Regarding `CC(=O)O[C@@H]1[C@H](C)O[C@@H](OC2OC(C(C)=O)CC3=C2C(=O)c2ccccc2C3=O)C[C@@H]1OC(C)=O` (mixture of isomers) [BCH2118, (1'S,1S,3R) and (1'S,1R,3S)-methyl-(1-[dideoxy-2',6'-diacetoxy-3',4'-L-lyxohexopyranose]-5,10-dioxo-3,4,5,10-tetrahydronaphtho-[2,3-c]-pyran-3-yl) ketone], the IC50 was found to be 120 nM in assay [1] (SKOV3, read-out: IC50); 790 nM in assay [2] (setting [7]); 244 nM in assay [3] (read-out: IC50); 203 nM in assay [4] (HT29, read-out: IC50). Moreover, in assay [2], the VLB/OV3 came to 6.68.
As for `CC[C@H]1CC2=C(C(=O)c3ccccc3C2=O)[C@H](NC(C)=O)O1` (relative stereo) [BCH2027, Trans-5,10-dioxo-1-acetamido-3-ethyl-3,4,5,10-tetrahydro-1H-naphtho-[2,3-c]-pyran], the VLB/OV3 in assay [2] was found to be 4.02. For the same compound, the IC50 came to 23300 nM in assay [3] (Homo sapiens) and 3040 nM with Lox (Melanoma) (Homo sapiens).
Regarding `COP(=O)(CC(=O)[C@@H]1CC2=C(C(=O)c3ccccc3C2=O)[C@@H](O[C@H]2C[C@H](NC(=O)C(F)(F)F)[C@H](O)[C@H](C)O2)O1)OC` [BCH1689, (1'S,1R,3S)-1-(2',3',6'-trideoxy-3'-trifluoroacetamido-L-lyxohexopyranose)-3-dimethylphosphonoacetyl-5,10-dioxo-3,4,5-10-tetrahydro-1H-naphtho-[2,3-c]-pyran], the concentration for half-maximal inhibition (IC50) came out at 2780 nM in assay [1] (Homo sapiens, SK-OV-3); 16500 nM in assay [2] (Homo sapiens); 1720 nM in the assay on Lox (Melanoma) (Homo sapiens); 3660 nM in assay [4] (Homo sapiens, HT-29). Besides, in assay [2], the VLB/OV3 is on record as 5.94.
With `COP(=O)(CC(=O)[C@H]1CC2=C(C(=O)c3ccccc3C2=O)[C@H](O[C@H]2C[C@H](NC(=O)C(F)(F)F)[C@H](O)[C@H](C)O2)O1)OC` [BCH1690, (1'S,1S,3R)-1-(2',3',6'-trideoxy-3'-trifluoroacetamido-L-lyxohexopyranose)-3-dimethylphosphonoacetyl-5,10-dioxo-3,4,5-10-tetrahydro-1H-naphtho-[2,3-c]-pyran], the IC50 was found to be 1780 nM in assay [1] (Homo sapiens, SK-OV-3); 13700 nM in assay [2] (Homo sapiens); 1620 nM with Lox (Melanoma) (Homo sapiens); 3010 nM in assay [4] (Homo sapiens, HT-29). Also, the VLB/OV3 in assay [2] amounted to 7.70.
Regarding `CC[C@H]1CO[C@H](O[C@H]2C[C@H](NC(=O)C(F)(F)F)[C@H](O)[C@H](C)O2)C2=C1C(=O)c1ccccc1C2=O` [BCH2091, (1'S,1R,4R)-5,10-dioxo-4-ethyl-1-(2',3',6'-trideoxy-3'-trifluoroacetamido-L-lyxohexopyranose)-3,4,5,10-tetrahydro-1H-naphtho-[2,3-c] pyran], in assay [2], the VLB/OV3 is 3.
As to `CC(=O)[C@H]1CC2=C(C(=O)c3ccc(O)cc3C2=O)[C@H](O[C@H]2C[C@H](NC(=O)C(F)(F)F)[C@H](O)[C@H](C)O2)O1` [BCH1180, (1'S,1S,3R)-Methyl (5,10-dioxo-1-(2',3',6'-trideoxy-3'-trifluoroacetamido-L-lyxohexopyranose)-7-hydroxy-3,4,5,10-tetrahydro [2,3-C]pyran-3-yl) ketone], the VLB/OV3 in assay [2] was found to be 10.20.
As to `C=C(C)[C@H]1CC2=C(C(=O)c3ccccc3C2=O)[C@H](OC)O1` (relative stereo) [BCH2148, (trans)-5,10-dioxo-3-isopropenyl-1-methoxy-3,4,5,10-tetrahydro-1H-naphtho-[2,3-c]-pyran], the VLB/OV3 in assay [2] came to 0.79. For the same compound, the IC50 with Lox (Melanoma) (Homo sapiens) was found to be 1550 nM.
Take `CC(=O)O[C@@H]1[C@H](C)O[C@@H](O[C@H]2O[C@H](C(C)=O)CC3=C2C(=O)c2ccccc2C3=O)C(Br)[C@@H]1OC(C)=O` (stereo partly drawn) [BCH2100, (1'S,1R,3S)-methyl-(1-[2',6'-dideoxy-3',4'-diacetoxy-2'-bromo-L-lyxohexopyranose]-5,10-dioxo-3,4,5,10-tetrahydronaphtho-[2,3-c]-pyran-3-yl) ketone]: in assay [2], the VLB/OV3 was 3.04.
Turning to `COC1OC(C(=O)NCCN2CCOCC2)=CC2=C1C(=O)c1ccccc1C2=O` (stereo not shown) [BCH2171, 1-methoxy-3-[2-(N-morpholine)ethylaminocarbonyl]-5,10-dioxo-5,10-dihydro-1H-naphtho-[2,3-c]-pyran], in assay [2], the VLB/OV3 is on record as 2.16. The concentration for half-maximal inhibition (IC50) was found to be 398 nM in assay [3] (Homo sapiens, read-out: IC50) and 219 nM in assay [4] (HT29, read-out: IC50).
Regarding `COC1OC(C(=O)NCCCN(C)C)=CC2=C1C(=O)c1ccccc1C2=O` (stereo not shown) [BCH2051, 1-Methoxy-5,10-dioxo-5,10-dihydro-1H-naphtho[2,3-c]pyran-3-[N-(3-dimethylamino-propyl)carboxamide] hydrochloride monohydrate], the “multidrug resistance / effectiveness in multidrug resistant cell line” value in assay [2] (SKVLB cell line) is listed as “significantly avoiding multidrug resistance”. Moreover, the “in vitro antitumor potency” value in assay [2] (in vitro) is listed as “intense in vitro antitumor potency”.
Take `COC(=O)[C@]1(C)CC2=C(C(=O)c3ccccc3C2=O)[C@@H](O[C@H]2C[C@H](NC(=O)C(F)(F)F)[C@H](O)[C@H](C)O2)O1` [BCH2077, (1'S,1R,3S)-1-(3'-trifluoroacetamido-2',3',6'-trideoxy-L-lyxohexopyranose)-3-methoxycarbonyl-3-methyl-3,4,5,10-tetrahydro-5,10-dioxo-1H-naphtho-[2,3-c] pyran]: the VLB/OV3 in assay [2] is listed as 11.
Regarding `CO[C@H]1O[C@H](C(=O)Nc2ccccc2)CC2=C1C(=O)c1ccccc1C2=O` (relative stereo) [BCH2041, (1,3-trans)-1-methoxy-3-N-anilinylcarbonyl-5,10-dioxo-3,4,5,10-tetrahydro-1H-naphtho-[2,3-c]-pyran], the IC50 in assay [2] (setting [5]) came to 10000 nM. Also, the VLB/OV3 in assay [2] worked out at 5.
Consider `COC(=O)[C@@H](N)COC1OC(C(C)=O)CC2=C1C(=O)c1ccccc1C2=O` (mixture of isomers) [BCH1654, (1S,2'S,3R) and (1R,2'S,3S)-methyl-(1-[O-serinemethyl ester]-5,10-dioxo-3,4,5,10-tetrahydronaphtaleno [2,3-C]pyran-3-yl) ketone hydrochloride], for which the VLB/OV3 in assay [2] turned out to be 5.25.
For the compound `COC(=O)C1=CC2=C(C(=O)c3ccccc3C2=O)C(OC)O1` (stereo not shown) [BCH2160, 1-methoxy-3-methoxy carbonyl-5,10-dioxo-5,10-dihydro-1H-naphtho-[2,3-c]-pyran], in assay [2], the VLB/OV3 was determined as 1.85.
As for “(1'S,1S,3R)-methyl-(6 and 9-hydroxy-1-[2',3',6'-trideoxy-3'-trifluoroacetamido-4'-hydroxy-L-lyxohexopyranose]-5,10-dioxo-3,4,5,10-tetrahydronaphtho-[2,3-c]-pyran-3-yl-ketone [BCH2078]”, the half-maximal inhibitory concentration (IC50) was 414 nM in assay [1] (SKOV3, read-out: IC50); 2240 nM in assay [2] (setting [7]); 507 nM in assay [3] (read-out: IC50); 269 nM in assay [4] (HT29, read-out: IC50). The VLB/OV3 in assay [2] is on record as 5.41.

The values are drawn from US5736523A, “Antineoplastic heteronapthoquinones” (Biochem Pharma Inc., priority 1995, dated 1998).
